In patent US11718582B2, “(R)-4-(1-(1-(4-(trifluoromethyl)benzyl)pyrrolidine-2-carboxamide)cyclopropyl)-benzoic acid as EP4 receptor antagonist” (ROTTAPHARM BIOTECH S.R.L., priority 2018, dated 2023):
Where a name gives a salt, the structure may show the parent alone. Read-outs that look alike come from different tables or passages of the source.

Experiments:
[1] = molecular target: T1, human EP4 receptor (Homo sapiens, UniProt P35408); experiment: Determination of cAMP in CHO cells transfected with human EP4 receptor (functional test); format: cell-based; parameters: expressed in transfected cells; host or cells: CHO cells; settings: for Agonist effect (inactive up to): cAMP production in absence of PGE2, vs 1 μM PGE2 control; for Kb: cAMP, CHO-hEP4, 30 nM PGE2, modified Cheng Prusoff; for IC50: inhibition of cAMP response to 30 nM PGE2, read-out: Antagonist effect: IC50
T1 sequence (P35408 whole entry): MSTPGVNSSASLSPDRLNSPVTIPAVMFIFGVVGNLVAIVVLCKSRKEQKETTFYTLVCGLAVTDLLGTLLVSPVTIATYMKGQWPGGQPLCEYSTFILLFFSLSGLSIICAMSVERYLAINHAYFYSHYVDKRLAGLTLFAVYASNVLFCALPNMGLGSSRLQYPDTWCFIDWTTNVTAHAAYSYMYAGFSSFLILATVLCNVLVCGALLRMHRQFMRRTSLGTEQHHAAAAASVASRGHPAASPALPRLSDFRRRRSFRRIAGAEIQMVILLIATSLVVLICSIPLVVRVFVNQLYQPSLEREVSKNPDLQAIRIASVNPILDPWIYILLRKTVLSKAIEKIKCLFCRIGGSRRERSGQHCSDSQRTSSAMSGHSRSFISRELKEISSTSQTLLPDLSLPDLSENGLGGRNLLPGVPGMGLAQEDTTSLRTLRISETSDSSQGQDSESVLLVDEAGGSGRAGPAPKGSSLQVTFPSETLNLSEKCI
Experimental: Determination of cAMP in CHO Cells Transfected with Human EP4 Receptor (Functional Test)
Method: Evaluation of the agonist and antagonist activity of Compound 1 in the human EP4 receptor expressed in CHO cells transfected with the human EP4 receptor, determined by measuring its effects on cAMP production in the absence and in the presence of the endogenous agonist PGE2.
The CHO cells were suspended in HBSS buffer (Invitrogen) with the addition of HEPES 20 mM (pH 7.4) and IBMX […], then distributed in microplates at a density of 20000 cells per well and incubated for 10 minutes at room temperature in the absence (control) or in presence of the compound under examination. As a reference control of the agonist activity, 1 μM of PGE2 was added to independent dosage wells. In the case of the evaluation of the antagonistic effect, the reference agonist PGE2 was instead added to a final concentration of 30 nM. After 10 minutes of incubation at room temperature, the cells were lysed and the fluorescence acceptor (cAMP labelled D2) and the fluorescence donor (anti-cAMP antibody labelled with europium cryptate) were added. After 60 minutes at room temperature, the fluorescence transfer was measured at a wavelength of 337 nm in excitation and at 620 and 665 nm in emission using a microplate reader (Envison, Perkin Elmer). The cAMP concentration was determined by dividing the measured signal at 665 nm by that measured at 620 nm (ratio). The results were expressed, in the case of the evaluation of the agonist effect, as a percentage of the control response at 1 μM of PGE2 while, in the case of the evaluation of the antagonist effect, as a percentage of inhibition of the response of the control agonist at 30 nM PGE2. For the determination of the antagonist activity, the apparent dissociation constant (Kb) was calculated by applying the modified Cheng Prusoff equation (Kb=IC50/(1+A/EC50A)); where A=concentration of the reference agonist PGE2, and EC50A=EC50 value of the reference agonist.

[2] = molecular target: T2, EP4 receptor (Rattus norvegicus, UniProt P43114); experiment: Ex-vivo functional test: reversion of PGE2 effect on LPS-induced TNF alpha release in rat whole blood (EP4 receptor occupation); settings: 30 mg/kg oral; for Effect per se on the release of TNF alpha (in absence of PGE2): LPS only; for Reversion of the effect of PGE2 on LPS-induced TNF alpha release: blood sampled 1 hour after treatment, **p<0.01 vs vehicle
T2 construct: by the cells present in the whole blood of the rat and expressing the EP4 receptor; from tissue; host or cells: whole blood of male Wistar rats dosed orally, ex vivo
T2 sequence (P43114 whole entry): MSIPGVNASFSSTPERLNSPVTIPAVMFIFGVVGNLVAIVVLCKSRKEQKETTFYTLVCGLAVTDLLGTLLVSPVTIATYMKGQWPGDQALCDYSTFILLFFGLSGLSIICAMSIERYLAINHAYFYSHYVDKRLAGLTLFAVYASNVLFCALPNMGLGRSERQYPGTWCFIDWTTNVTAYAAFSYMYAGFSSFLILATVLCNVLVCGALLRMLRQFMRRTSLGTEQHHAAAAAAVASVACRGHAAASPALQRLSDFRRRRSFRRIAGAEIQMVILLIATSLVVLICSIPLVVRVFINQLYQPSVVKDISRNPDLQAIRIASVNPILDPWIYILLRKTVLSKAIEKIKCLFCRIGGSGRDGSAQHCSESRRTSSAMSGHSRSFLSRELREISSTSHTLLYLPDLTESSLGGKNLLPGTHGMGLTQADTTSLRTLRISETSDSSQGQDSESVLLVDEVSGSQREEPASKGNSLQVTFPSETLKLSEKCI
Experimental: Ex-Vivo Functional Test: Evaluation in the Rat of EP4 Receptor Occupation by Compound 1 (30 mg/kg) Compared to CR6086 (30 mg/kg)
Method: The release of the cytokine TNF alpha induced by the endotoxin Lipopolysaccharide (from E. coli) and modulated by increasing concentrations of PGE2 was evaluated, by the cells present in the whole blood of the rat and expressing the EP4 receptor. As it is known from the literature, PGE2 modulates this release by inhibiting it, and the compounds tested, selective for the EP4 receptor, if present in the blood following their uptake, will be bound to the receptor, preventing PGE2 from inhibiting cytokine release. This reversal effect of the modulation of TNF alpha release can be considered a biomarker of the antagonism towards the EP4 receptor.
Male Wistar rats (Charles River, Italy) weighing 250-275 g were used, orally treated with a vehicle or Compound 1 (30 mg/kg) or CR6086 (30 mg/kg). Each treatment group consisted of 6 animals.
Measurement of the Ex-Vivo Effects in Whole Blood of the Rat:
The effects of the receptor occupancy by the compounds under examination was evaluated one hour after their administration, and compared to those measured in the presence of the vehicle alone. After gaseous anaesthesia with isofluorane, blood was taken from the abdominal aorta and transferred to tubes containing heparin (0.1-0.2 U/ml). Then 0.4 ml blood aliquots were taken and dispensed into a series of test tubes which were pre-heated at 37° C. for 10 minutes. LPS (0.1 μg/ml final concentration) were added to the samples, which represented the test control, or an LPS mix (0.1 μg/ml final concentration)+PGE2 at various concentrations. In the samples representing the basal release of cytokine, LPS was replaced by sterile phosphate buffer (PBS). The samples were incubated for 4 hours at 37° C., then 40 μl of 10 mM EDTA were added and the samples were transferred into ice. The samples were then centrifuged at 1500×g for 10 minutes at 4° C. and the plasma thus obtained was removed and stored at −80° C. until the time of the dosing. The content of TNF alpha in the plasma was measured by means of a specific commercial kit.
The final concentrations of TNF alpha were calculated for each animal treated and for each experimental condition, from which the percentage of inhibition due to increasing concentrations of PGE2 were obtained, compared to the sample containing only LPS. The cytokine release baseline values resulted to be below the ELISA assay sensitivity limit, indicated by the manufacturer. Therefore, the IC50 value was calculated from this inhibition curve. […] The mean TNF alpha values of the samples in presence of only LPS, in the different treatment groups were analysed to verify the possible intrinsic effect of the compound under examination. […]

[3] = molecular target: T1, human EP4 receptor; experiment: [3H]-PGE2 binding to recombinant human EP4 receptor (HEK293 membranes); parameters: expressed in transfected cells; settings: for IC50: recombinant human EP4 receptor, HEK293 membranes, radioligand 1 nM, 90 min 25° C., read-out: [3H]-PGE2 binding IC50 (nM ± SD)
Experimental: Studies of Binding Towards the Human EP4 Receptor.
The experiments were performed in accordance with the procedure described by Abramovitz et al (Biochemica and Biophysica Acta; 1483, 285-293, 2000).
The cell membranes bearing the human EP4 receptor, stably expressed by HEK293 cells (Human Embryonic Kidney 293) were prepared as described below. After eliminating the culture medium (DMEM, supplemented with Glutamax I and containing 10% of foetal bovine serum and blasticidin 10 μg/ml) a wash of the cell monolayer was performed with 10 ml of hypotonic lysis buffer (TRIS-CI 5 mM+EDTA 5 mM-pH 7.4). The cells, which grew in adherence in the above mentioned medium at 37° C. with 5% CO2, were then detached from the growth container (150 cm^2 flask) and lysed by mechanical action, adding 20 ml of fresh lysis buffer. The lysates were stirred for 30 seconds and centrifuged at 40000×g for 22 minutes at 4° C. The final pellet was stored at −80° C. until use. At the time of the binding experiment, the membranes were thawed and re-suspended in analysis buffer (10 mM MES-KOH pH6, containing 10 mM MgCl2 and 1 mM CaCl2)) to obtain a concentration of 1 mg of proteins/ml. The protein content of the membrane suspension was determined using bovine serum albumin as a standard.
In the experiments, 10 μl aliquots of membranes were incubated with the radioligand [^3H]-Prostaglandin E2 (PGE2) at the concentration of 1 nM, in absence or in presence of various concentrations of the compounds to be tested. The non-specific binding was determined in the presence of PGE2 1 μM. The incubation, in a final volume of 0.1 ml, performed in 96 deepwell microplates, proceeded for 90 minutes at 25° C. The separation of the free radioligand from that bound to the receptor occurred by rapid filtration under vacuum, using Unifilter GFB glass fibre filtering microplates, pre-wetted with 0.3% of polyethylene-imine dissolved in the analysis buffer, followed by 3 washes with cold buffer (50 mM HEPES, NaCl 500 mM, BSA 0.1%, pH 7.4). The filtration discs were then dried at 30° C., to which 0.05 ml of Microscint-20 scintillation liquid (Perkin Elmer) was added to each and at the end the radioactivity present was measured after at least one hour of stabilization. The compound/radioligand competition curves were analysed using the “Non linear curve fitting” program (Graph Pad, version 7 for Windows), which allowed calculating the IC50 value (concentration capable of inhibiting the 50% of the radioligand binding to the receptor under examination) for each compound evaluated.

[4] = Pharmacokinetics in Wistar rats; format: in vivo; settings: for Cmax: rat, plasma, oral
[5] = test system: collagen-induced arthritis in mice; experiment: Collagen arthritis in the mouse (CIA); format: in vivo
[6] = read-out: Antagonist effect: Kb
[7] = read-out: Kb (apparent dissociation constant), antagonist

Agonist effect (inactive up to) [1]	Kb [1, 6] [µM]	Kb [1, 7] [µM]	IC50 [1] [µM]	Effect per se on the release of TNF alpha (in absence of PGE2) [2]	IC50 [3] [nM]	Oral bioavailability [4]	AUC (0-24 h) ([4]; 5 mg/kg) [ngxh/ml]	Cmax ([4]; 5 mg/kg, converted from 4270 ng/ml, read-out: CMAX as plasma concentration) [µM]	Cmax ([4]; 5 mg/kg, read-out: CMAX) [µg/mL]	times less active than Compound 1 in inhibiting the binding of the PGE2 ligand to the human EP4 receptor ([3]; relative to Compound 1)	Compound	Reversion of the effect of PGE2 on LPS-induced TNF alpha release [2]	Progression of collagen-induced arthritis (oedema, clinical and histopathological score) ([5]; 45 and 90 mg/kg oral, 16 days, DBA/1 mice)	Reversion of clinical symptoms (swelling of paws) compared with CR6086 30 mg/kg ([5]; compound 1 at 45 mg/kg vs CR6086 30 mg/kg in a similar study)
> 10^−6 M	0.0078	0.0078	0.082	no significant effects per se	48 ± 3	–	–	–	–	–	O=C(O)c1ccc(C2(NC(=O)[C@H]3CC4(CCN3Cc3ccc(C(F)(F)F)cc3)CC4)CC2)cc1 [CR6086, 4-(1-(6-(4-(trifluoromethyl)benzyl)-6-azaspiro [2.5]octan-5-carboxamide)cyclopropyl) benzoic acid, reference compound]	statistically significant reversion of the effect of PGE2	–	–
> 10^−6 M	0.015	0.015	0.16	no significant effects per se	45 ± 0.4	excellent oral bioavailability	5460	~9	4.27	–	O=C(O)c1ccc(C2(NC(=O)[C@H]3CCCN3Cc3ccc(C(F)(F)F)cc3)CC2)cc1 [Compound 1]	statistically significant reversion of the effect of PGE2	significantly and in a dose-dependent manner reduced the evolution of the pathology	greater effect on the reversion of clinical symptoms
–	–	–	–	–	2210 ± 940	–	–	–	–	about 50 times	O=C(O)c1ccc(C2(NC(=O)[C@@H]3CCCN3Cc3ccc(C(F)(F)F)cc3)CC2)cc1 [Compound 2, sodium salt of (S)-4-(1-(1-(4-(trifluoromethyl)benzyl)pyrrolidin-2-carboxamide)cyclopropyl) benzoic acid]	–	–	–
